Experimental findings from patent US20240400584A1, “COMPOUNDS AND METHODS FOR MODULATING SPLICING” (REMIX THERAPEUTICS INC., priority 2021, published 2024) are described below.

The test system of assay [1] is HiBit-tagged MYB in K562 cells. Put plainly: HiBiT protein abundance assay, MYB. To be noted: HiBiT-modified K562 cells, 24 hours, luminescence. The format is cell-based, human. As to the method:
Compounds described herein were used to screen for effects on quantitative protein abundance using a HiBit assay system (Promega). Quantitative protein abundance was determined by measuring the protein levels of HiBit-tagged protein targets expressed in cell culture via luminescence using the Nano-Glo HiBiT Lytic Detection System, which uses a split complementation assay format to reconstitute NanoBiT enzyme to generate a luminescent signal. A protein abundance assay was developed such that endogenous protein targets could be modified with the HiBiT peptide tag and their abundance could be assessed after compound treatment. Briefly, K562 cell lines containing a HiBiT-modification were treated with various compounds described herein (e.g., compounds of Formulas (I)). After treatment for 24 hours, the protein abundance of a specific target was determined by measuring luminescence.
Cells were maintained in IMDM with 10% FBS. Before the assay, cells were diluted with […] growth media (IMDM+[…] media) and were seeded in a 384-well plate at a density of 10000 cells/well (for each cell line listed in Table 8). Each compound was prepared as a 10-point 3-fold serial dilution in DMSO with the top dose at a final concentration of 10 μM in the well. Unmodified K562 cells were added at the previously specified density with DMSO to serve as an assay baseline and positive control (PC) and DMSO only with the respective modified cell lines was added to the negative control (NC) columns. Final DMSO concentration was kept at or below 0.25% o. Treated cell plates were placed in an incubator at 37° C. with […] for 24 hours. After 24 hours, 25 μL of Complete HiBit Lytic reagent was added to each well at room temperature (e.g. one plate requiring 10 mL Lytic Buffer, 100 μL LgBiT Protein, 200 μL Lytic Substrate), shaken for 5 minutes at 600 RPM, then left to sit for 10 minutes for signal to stabilize before reading on a Spark Cyto plate reader (Tecan) with a 500 ms measurement time.
To determine compound effects on protein abundance of each target in Table 9, the percent response for each respective cell line was calculated at each compound concentration as follows:
For the normalized response at each concentration, a four-parameter logistical regression was fit to the data and the response was interpolated at the […] to determine a concentration for protein abundance at 50% o (IC50) the untreated control.

A further assay deals with HTT. The assay can be described thus: RT-qPCR splicing assay, HTT AJ/CJ mRNA. The format is cell-based, human. The note with it: Homo sapiens, 24 h, A673 or K562 cells; for IC50: decrease in canonical junction mRNA; for AC50: increase in alternative junction mRNA. The method, boiled down:
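Following 24 h compound exposure at 37 °C (11 points, 3-fold, highest 10 uM; DMSO ≤0.25%), A673 or K562 lysates underwent RT-qPCR for exon-inclusion (AJ) and canonical (CJ) junctions of HTT and MYB. Relative quantification used housekeeping-gene ΔCt and DMSO-normalized ΔΔCt, converted to percentage response.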

Structures are written as SMILES. Some results are limits rather than exact numbers.

What is called IC50 is the point on the concentration scale where inhibition reaches its midpoint. The low end stands for inhibition by little substance, the high end for a need for much substance. For orientation: AC50 means the concentration giving half of the maximal activity seen. Higher therefore signals activity only at high concentration. Regarding `CN(c1ccc2c(n1)OCc1cc(-c3cc(=O)n(C)cn3)ccc1-2)[C@@H]1C[C@H]2CC[C@@H](C1)N2` [Compound 162], the IC50 in assay [1] was 100 to 1000 nM; with HTT it was < 100 nM. In the assay on HTT, the AC50 was < 100 nM.

`CN(c1ccc2c(n1)OCc1cc(-n3ccnc3)ccc1-2)[C@@H]1C[C@H]2CC[C@@H](C1)N2` [Compound 163]: in assay [1], the IC50 is < 100 nM. In the assay with HTT, the IC50 is < 100 nM and the AC50 was < 100 nM.

With `Cc1cn(-c2ccc3c(c2)COc2nc(N(C)[C@@H]4C[C@H]5CC[C@@H](C4)N5)ccc2-3)cn1` [Compound 164], the IC50 in assay [1] lay in the range of 100 to 1000 nM. In addition, in the assay on HTT, the IC50 is < 100 nM and the AC50 was < 100 nM.

`CC1(C)CC(Nc2ccc3c(n2)OCc2cc(-n4cccn4)ccc2-3)CC(C)(C)N1` [Compound 165] gave an IC50 in assay [1] of 100 to 1000 nM. Also, in the assay on HTT, the half-inhibitory concentration (IC50) fell in the range of 100 to 1000 nM and the AC50 lay within 100 to 1000 nM.

For `c1cnn(-c2ccc3c(c2)COc2nc(NC4CNC4)ccc2-3)c1` [Compound 166], the IC50 in assay [1] fell in the range of 1000 to 10000 nM. For the same compound, in the assay with HTT, the IC50 is > 10000 nM and the AC50 is > 10000 nM.

`Cc1cnc(-c2ccc3c(c2)COc2nc(N(C)[C@@H]4C[C@H]5CC[C@@H](C4)N5)ccc2-3)o1` [Compound 206] returned an IC50 in assay [1] of 100 to 1000 nM. In the assay with HTT, this compound gave an IC50 of 100 to 1000 nM and an AC50 of 100 to 1000 nM.

Regarding `c1cc2c(cc1-c1cn[nH]c1)COc1nc(O[C@@H]3C[C@H]4CC[C@@H](C3)N4)ccc1-2` [Compound 218], in assay [1], the IC50 is < 100 nM. In the assay with HTT, the IC50 is < 100 nM and the AC50 is < 100 nM.

Take `COc1cc(-c2ccc3c(c2)COc2nc(N4CCC(NC5(C)CCC5)C4)ccc2-3)cnn1` (stereo not drawn) [Compound 285, 1-[8-(6-methoxypyridazin-4-yl)-6H-isochromeno[3,4-b]pyridin-3-yl]-N-(1-methylcyclobutyl)pyrrolidin-3-amine]: in assay [1], the concentration for half-maximal inhibition (IC50) was 100 to 1000 nM. Moreover, in the assay with HTT, the IC50 was < 100 nM and the AC50 lay within 100 to 1000 nM.

In the case of `CC(C)Oc1cnnc(-c2ccc3c(c2)COc2nc(N4CCC(NC(C)(C)C)C4)ccc2-3)c1` (stereo not drawn) [Compound 286], the figures for the IC50 (in assay [1]; with HTT) were 1000 to 10000 nM and > 10000 nM, respectively. For the same compound, in the assay with HTT, the AC50 is > 10000 nM.

In assay [1], `COc1cc(-c2ccc3c(c2)COc2nc(N4CCN[C@@H](C)C4)ccc2-3)cnn1` [Compound 287] displayed an IC50 of 100 to 1000 nM. In the assay on HTT, the 50% inhibitory concentration (IC50) was 100 to 1000 nM and the AC50 lay within 100 to 1000 nM.

For the compound `COc1cc(-c2ccc3c(c2)COc2nc(O[C@@H]4C[C@H]5COC[C@@H](C4)N5)ccc2-3)cnn1` [Compound 290, (exo)-7-{[8-(6-methoxypyridazin-4-yl)-6H-isochromeno[3,4-b]pyridin-3-yl]oxy}-3-oxa-9-azabicyclo[3.3.1]nonane], in assay [1], the IC50 lay in the range of 100 to 1000 nM. In the assay on HTT, the IC50 is < 100 nM and the AC50 was 100 to 1000 nM.

For `COc1cc(-c2ccc3c(c2)COc2nc(N4CCC(N5CCCC5)C4)ccc2-3)cnn1` (stereo not drawn) [Compound 305], the IC50 in assay [1] is 1000 to 10000 nM. Besides, in the assay on HTT, the IC50 was in the range of 100 to 1000 nM and the AC50 was 100 to 1000 nM.

In turn, `COc1cc(-c2ccc3c(c2)COc2nc(N4CCC(N(C)C)C4)ccc2-3)cnn1` (stereo not drawn) [Compound 306, 1-[8-(6-methoxypyridazin-4-yl)-6H-isochromeno[3,4-b]pyridin-3-yl]-N,N-dimethylpyrrolidin-3-amine] came in with an IC50 in assay [1] of 1000 to 10000 nM. In the assay with HTT, the IC50 was 100 to 1000 nM and the AC50 was in the range of 1000 to 10000 nM.

For `COc1cc(-c2ccc3c(c2)COc2nc(N4CCC(N(C)C5CCC5)C4)ccc2-3)cnn1` (stereo not drawn) [Compound 307, N-cyclobutyl-1-[8-(6-methoxypyridazin-4-yl)-6H-isochromeno[3,4-b]pyridin-3-yl]-N-methylpyrrolidin-3-amine], the IC50 (in assay [1]; in the assay with HTT) was 100 to 1000 nM throughout. In the assay on HTT, this compound had an AC50 of 100 to 1000 nM.
